# pIC50: −log10 of the molar value. Numbered stars: 1 amine (or outer) side, 2 acyl side, 3 side chain; on linkers, the order of the positions; unused ones are H or OH. Bridge positions count the residues as written; N and C are the ends. Square brackets hold non-standard residues; d marks the D form. Peptide text beside a SMILES is read from it. * marks the point of attachment. Bip = N[C@@H](Cc1ccc(-c2ccccc2)cc1)C(=O)O; Phe(3-Me) = Cc1cccc(C[C@H](N)C(=O)O)c1; γGlu = O=C(O)[C@H](CCC(=O)[*:2])N[*:1]; βAsp = O=C(O)[C@H](CC(=O)[*:2])N[*:1]; Cha = N[C@@H](CC1CCCCC1)C(=O)O; Cit = NC(=O)NCCC[C@H](N)C(=O)O; Carboxymethyl = O=C(O)C*; Orn = NCCC[C@H](N)C(=O)O; Aun = NCCCCCCCCCCC(=O)O; Dab = NCC[C@H](N)C(=O)O; Dap = NC[C@H](N)C(=O)O; AEEA = NCCOCCOCC(=O)O
# Molecular target: T1, PD-1/PD-L1 interaction (PE-labeled human PD-L1-Ig binding to Jurkat cell line over-expressing human PD-1) (Homo sapiens, UniProt Q15116)
# T1 construct: expressed in transfected cells; host or cells: Jurkat
# Test: Jurkat-PD-1 Cell Binding High-Content Screening Assay (CBA)
# Format: cell-based
# Conditions: Jurkat cell line over-expressing human PD-1; PE-labeled PD-L1-Ig 20 nM final; read-out: Jurkat hPD1-PDL1 IC50
# Protocol: Example 2: Jurkat-PD-1 Cell Binding High-Content Screening Assay (CBA)
# Phycoerythrin (PE) was covalently linked to the Ig epitope tag of human PD-L1-Ig and fluorescently-labeled PD-L1-Ig was used for binding studies with a Jurkat cell line over-expressing human PD-1 (Jurkat-PD-1). Briefly, 8×10^3 Jurkat-hPD-1 cells were seeded into 384 well plates in 20 μl of DMEM supplemented with 10% fetal calf serum. 100 nl of compound was added to cells followed by incubation at 37° C. for 2 h. Then, 5 μl of PE-labeled PD-L1-Ig (20 nM final), diluted in DMEM supplemented with 10% fetal calf serum. After 1 hour incubation, cells were fixed with 4% paraformaldehyde in dPBS containing 10 μg/ml Hoechst 33342 and then washed 3× in 100 μl dPBS. Data was collected and processed using a Cell Insight NXT High Content Imager and associated software.
# T1 sequence (Q15116 25-288): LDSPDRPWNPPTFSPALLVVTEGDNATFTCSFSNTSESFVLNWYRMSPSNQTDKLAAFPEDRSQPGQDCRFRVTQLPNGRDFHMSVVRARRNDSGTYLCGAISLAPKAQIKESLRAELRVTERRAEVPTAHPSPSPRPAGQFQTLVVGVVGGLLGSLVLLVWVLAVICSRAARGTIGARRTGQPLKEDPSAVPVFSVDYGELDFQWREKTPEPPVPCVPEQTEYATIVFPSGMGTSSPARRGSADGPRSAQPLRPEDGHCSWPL
row,Structure (SMILES),pIC50
1,Cc1cccc(C[C@@H]2NC(=O)[C@H](CC(=O)O)NC(=O)[C@H](Cc3ccc(OCC(=O)O)cc3)NC(=O)[C@H](CN)NC(=O)CSC[C@@H](C(=O)N[C@@H](C)C(=O)N[C@@H](CC(=O)NCC(=O)NCCCCCCCCCCC(=O)O)C(=O)O)NC(=O)[C@H]([C@@H](C)O)NC(=O)[C@H](C(C)C)NC(=O)[C@H](CC3CCCCC3)NC(=O)[C@H](CCN)NC(=O)[C@@H](CC(C)C)NC(=O)[C@H](CCCN)NC(=O)[C@H](CCCNC(N)=O)NC(=O)[C@H](Cc3ccc(-c4ccccc4)cc3)NC(=O)[C@H](C(C)C)NC2=O)c1 [Compound 1012] ({CH2CO}-[Dap]Y(Carboxymethyl)D[Phe(3-Me)]V[Bip][Cit][Orn][dL][Dab][Cha]VTCA[βAsp]G[Aun]-OH; thioether N-14),8.30
2,Cc1cccc(C[C@@H]2NC(=O)[C@H](CC(=O)O)NC(=O)[C@H](Cc3ccc(OCC(=O)O)cc3)NC(=O)[C@H](CN)NC(=O)CSC[C@@H](C(=O)N[C@@H](C)C(=O)N[C@@H](CC(=O)O)C(=O)NCCOCCOCC(=O)N[C@@H](CC(=O)O)C(=O)NCCOCCOCC(=O)NCCCCCCCCCCC(=O)O)NC(=O)[C@H]([C@@H](C)O)NC(=O)[C@H](C(C)C)NC(=O)[C@H](CC3CCCCC3)NC(=O)[C@H](CCN)NC(=O)[C@@H](CC(C)C)NC(=O)[C@H](CCCN)NC(=O)[C@H](CCCNC(N)=O)NC(=O)[C@H](Cc3ccc(-c4ccccc4)cc3)NC(=O)[C@H](C(C)C)NC2=O)c1 [Compound 1013] ({CH2CO}-[Dap]Y(Carboxymethyl)D[Phe(3-Me)]V[Bip][Cit][Orn][dL][Dab][Cha]VTCAD[AEEA]D[AEEA][Aun]-OH; thioether N-14),7.92
3,Cc1cccc(C[C@@H]2NC(=O)[C@H](CC(=O)O)NC(=O)[C@H](Cc3ccc(OCC(=O)O)cc3)NC(=O)[C@H](CN)NC(=O)CSC[C@@H](C(=O)N[C@@H](C)C(=O)N[C@@H](CC(=O)O)C(=O)NCCOCCOCC(=O)N[C@@H](CCC(=O)NCCOCCOCC(=O)NCCCCCCCCCCC(=O)O)C(=O)O)NC(=O)[C@H]([C@@H](C)O)NC(=O)[C@H](C(C)C)NC(=O)[C@H](CC3CCCCC3)NC(=O)[C@H](CCN)NC(=O)[C@@H](CC(C)C)NC(=O)[C@H](CCCN)NC(=O)[C@H](CCCNC(N)=O)NC(=O)[C@H](Cc3ccc(-c4ccccc4)cc3)NC(=O)[C@H](C(C)C)NC2=O)c1 [Compound 1014] ({CH2CO}-[Dap]Y(Carboxymethyl)D[Phe(3-Me)]V[Bip][Cit][Orn][dL][Dab][Cha]VTCAD[AEEA][γGlu][AEEA][Aun]-OH; thioether N-14),8.26
4,Cc1cccc(C[C@@H]2NC(=O)[C@H](CC(=O)O)NC(=O)[C@H](Cc3ccc(OCC(=O)O)cc3)NC(=O)[C@H](CN)NC(=O)CSC[C@@H](C(=O)N[C@@H](C)C(=O)N[C@@H](CCC(=O)O)C(=O)NCCOCCOCC(=O)N[C@@H](CCC(=O)NCCOCCOCC(=O)NCCCCCCCCCCC(=O)O)C(=O)O)NC(=O)[C@H]([C@@H](C)O)NC(=O)[C@H](C(C)C)NC(=O)[C@H](CC3CCCCC3)NC(=O)[C@H](CCN)NC(=O)[C@@H](CC(C)C)NC(=O)[C@H](CCCN)NC(=O)[C@H](CCCNC(N)=O)NC(=O)[C@H](Cc3ccc(-c4ccccc4)cc3)NC(=O)[C@H](C(C)C)NC2=O)c1 [Compound 1015] ({CH2CO}-[Dap]Y(Carboxymethyl)D[Phe(3-Me)]V[Bip][Cit][Orn][dL][Dab][Cha]VTCAE[AEEA][γGlu][AEEA][Aun]-OH; thioether N-14),8.10
5,Cc1cccc(C[C@@H]2NC(=O)[C@H](CC(=O)O)NC(=O)[C@H](Cc3ccc(OCC(=O)O)cc3)NC(=O)[C@H](CN)NC(=O)CSC[C@@H](C(=O)N[C@@H](C)C(=O)N[C@@H](CC(=O)O)C(=O)NCCOCCOCC(=O)N[C@@H](CCC(=O)O)C(=O)NCCOCCOCC(=O)NCCCCCCCCCCC(=O)O)NC(=O)[C@H]([C@@H](C)O)NC(=O)[C@H](C(C)C)NC(=O)[C@H](CC3CCCCC3)NC(=O)[C@H](CCN)NC(=O)[C@@H](CC(C)C)NC(=O)[C@H](CCCN)NC(=O)[C@H](CCCNC(N)=O)NC(=O)[C@H](Cc3ccc(-c4ccccc4)cc3)NC(=O)[C@H](C(C)C)NC2=O)c1 [Compound 1016] ({CH2CO}-[Dap]Y(Carboxymethyl)D[Phe(3-Me)]V[Bip][Cit][Orn][dL][Dab][Cha]VTCAD[AEEA]E[AEEA][Aun]-OH; thioether N-14),8.22
6,Cc1cccc(C[C@@H]2NC(=O)[C@H](CC(=O)O)NC(=O)[C@H](Cc3ccc(OCC(=O)O)cc3)NC(=O)[C@H](CN)NC(=O)CSC[C@@H](C(=O)N[C@@H](C)C(=O)N[C@@H](CC(=O)NCCOCCOCC(=O)N[C@@H](CCC(=O)NCCOCCOCC(=O)NCCCCCCCCCCC(=O)O)C(=O)O)C(=O)O)NC(=O)[C@H]([C@@H](C)O)NC(=O)[C@H](C(C)C)NC(=O)[C@H](CC3CCCCC3)NC(=O)[C@H](CCN)NC(=O)[C@@H](CC(C)C)NC(=O)[C@H](CCCN)NC(=O)[C@H](CCCNC(N)=O)NC(=O)[C@H](Cc3ccc(-c4ccccc4)cc3)NC(=O)[C@H](C(C)C)NC2=O)c1 [Compound 1018] ({CH2CO}-[Dap]Y(Carboxymethyl)D[Phe(3-Me)]V[Bip][Cit][Orn][dL][Dab][Cha]VTCA[βAsp][AEEA][γGlu][AEEA][Aun]-OH; thioether N-14),8.08
7,Cc1cccc(C[C@@H]2NC(=O)[C@H](CC(=O)O)NC(=O)[C@H](Cc3ccc(OCC(=O)O)cc3)NC(=O)[C@H](CN)NC(=O)CSC[C@@H](C(=O)N[C@@H](C)C(=O)N[C@@H](CC(=O)NCCOCCOCC(=O)N[C@@H](CC(=O)O)C(=O)NCCOCCOCC(=O)NCCCCCCCCCCC(=O)O)C(=O)O)NC(=O)[C@H]([C@@H](C)O)NC(=O)[C@H](C(C)C)NC(=O)[C@H](CC3CCCCC3)NC(=O)[C@H](CCN)NC(=O)[C@@H](CC(C)C)NC(=O)[C@H](CCCN)NC(=O)[C@H](CCCNC(N)=O)NC(=O)[C@H](Cc3ccc(-c4ccccc4)cc3)NC(=O)[C@H](C(C)C)NC2=O)c1 [Compound 1019] ({CH2CO}-[Dap]Y(Carboxymethyl)D[Phe(3-Me)]V[Bip][Cit][Orn][dL][Dab][Cha]VTCA[βAsp][AEEA]D[AEEA][Aun]-OH; thioether N-14),8.17
8,Cc1cccc(C[C@@H]2NC(=O)[C@H](CC(=O)O)NC(=O)[C@H](Cc3ccc(OCC(=O)O)cc3)NC(=O)[C@H](CN)NC(=O)CSC[C@@H](C(=O)N[C@@H](C)C(=O)N[C@@H](CC(=O)NCCOCCOCC(=O)N[C@@H](CCC(=O)O)C(=O)NCCOCCOCC(=O)NCCCCCCCCCCC(=O)O)C(=O)O)NC(=O)[C@H]([C@@H](C)O)NC(=O)[C@H](C(C)C)NC(=O)[C@H](CC3CCCCC3)NC(=O)[C@H](CCN)NC(=O)[C@@H](CC(C)C)NC(=O)[C@H](CCCN)NC(=O)[C@H](CCCNC(N)=O)NC(=O)[C@H](Cc3ccc(-c4ccccc4)cc3)NC(=O)[C@H](C(C)C)NC2=O)c1 [Compound 1020] ({CH2CO}-[Dap]Y(Carboxymethyl)D[Phe(3-Me)]V[Bip][Cit][Orn][dL][Dab][Cha]VTCA[βAsp][AEEA]E[AEEA][Aun]-OH; thioether N-14),8.08
9,Cc1cccc(C[C@@H]2NC(=O)[C@H](CC(=O)O)NC(=O)[C@H](Cc3ccc(OCC(=O)O)cc3)NC(=O)[C@H](CN)NC(=O)CSC[C@@H](C(=O)N[C@@H](C)C(=O)N[C@@H](CC(=O)O)C(=O)NCCOCCOCC(=O)N[C@@H](CC(=O)NCCOCCOCC(=O)NCCCCCCCCCCC(=O)O)C(=O)O)NC(=O)[C@H]([C@@H](C)O)NC(=O)[C@H](C(C)C)NC(=O)[C@H](CC3CCCCC3)NC(=O)[C@H](CCN)NC(=O)[C@@H](CC(C)C)NC(=O)[C@H](CCCN)NC(=O)[C@H](CCCNC(N)=O)NC(=O)[C@H](Cc3ccc(-c4ccccc4)cc3)NC(=O)[C@H](C(C)C)NC2=O)c1 [Compound 1021] ({CH2CO}-[Dap]Y(Carboxymethyl)D[Phe(3-Me)]V[Bip][Cit][Orn][dL][Dab][Cha]VTCAD[AEEA][βAsp][AEEA][Aun]-OH; thioether N-14),8.08
10,Cc1cccc(C[C@@H]2NC(=O)[C@H](CC(=O)O)NC(=O)[C@H](Cc3ccc(OCC(=O)O)cc3)NC(=O)[C@H](CN)NC(=O)CSC[C@@H](C(=O)N[C@@H](C)C(=O)N[C@@H](CCC(=O)O)C(=O)NCCOCCOCC(=O)N[C@@H](CC(=O)NCCOCCOCC(=O)NCCCCCCCCCCC(=O)O)C(=O)O)NC(=O)[C@H]([C@@H](C)O)NC(=O)[C@H](C(C)C)NC(=O)[C@H](CC3CCCCC3)NC(=O)[C@H](CCN)NC(=O)[C@@H](CC(C)C)NC(=O)[C@H](CCCN)NC(=O)[C@H](CCCNC(N)=O)NC(=O)[C@H](Cc3ccc(-c4ccccc4)cc3)NC(=O)[C@H](C(C)C)NC2=O)c1 [Compound 1022] ({CH2CO}-[Dap]Y(Carboxymethyl)D[Phe(3-Me)]V[Bip][Cit][Orn][dL][Dab][Cha]VTCAE[AEEA][βAsp][AEEA][Aun]-OH; thioether N-14),8.24
11,Cc1cccc(C[C@@H]2NC(=O)[C@H](CC(=O)O)NC(=O)[C@H](Cc3ccc(OCC(=O)O)cc3)NC(=O)[C@H](CN)NC(=O)CSC[C@@H](C(=O)N[C@@H](C)C(=O)N[C@@H](CC(=O)NCCCCCCCCCCC(=O)O)C(=O)O)NC(=O)[C@H]([C@@H](C)O)NC(=O)[C@H](C(C)C)NC(=O)[C@H](CC3CCCCC3)NC(=O)[C@H](CCN)NC(=O)[C@@H](CC(C)C)NC(=O)[C@H](CCCN)NC(=O)[C@H](CCCNC(N)=O)NC(=O)[C@H](Cc3ccc(-c4ccccc4)cc3)NC(=O)[C@H](C(C)C)NC2=O)c1 [Compound 1023] ({CH2CO}-[Dap]Y(Carboxymethyl)D[Phe(3-Me)]V[Bip][Cit][Orn][dL][Dab][Cha]VTCA[βAsp][Aun]-OH; thioether N-14),8.10

# — patent US20260022142A1, “MACROCYCLIC IMMUNOMODULATORS” (Bristol-Myers Squibb Company, priority 2022, published 2026)
